Assay results reported in patent US3974281A, “5-Methyl-1-phenyl-2-(1H)-pyridone compositions and methods of use” (priority 1974, dated 1976).
Entries after “also recorded” stand apart in the source; their conditions may differ.

Experiments:
[1] = Absorption into the blood stream; conditions: in vivo
[2] = Solubility; type: physicochemical
[3] = test system: fasted albino mice (Flanders); assay: Acute toxicity in mice; type: in vivo; conditions: oral and intraperitoneal
Experimental: (§1) in fasted albino mice (Flanders) the LD50 for AMR-69 and aminopyrine was determined by standard procedures with the following results: […]

[4] = Acute toxicity in mice; type: in vivo; conditions: mouse, in vivo, ip; fasted albino mice, intraperitoneal; read-out: Intraperitoneally LD50
Experimental: as §1

[5] = test system: experimentally-induced fever in albino rabbits; assay: Anti-pyretic activity, experimentally-induced fever in rabbits; type: in vivo
Experimental: anti-pyretic activity testing is based upon the ability of the drug to suppress the experimentally-induced fever in albino rabbits (F. M. Berger, et al. J. Pharmacology and Experimental Therapeutics, Vol. 127, No. 1, 1959 based upon the original presentations of G. Brownlee Quart. J. Pharm; Vol. 10, Pg. 609, 1937 and Quart. J. Pharm., Vol. 12, Pg. 45, 1939). The drugs under test are administered intraperitoneally and the response is compared to that of saline controls. The average change in temperature over a period of three hours following the administration of aminopyrine (100 mg./kg. i.p.), AMR-69 (100 mg./kg. i.p.) and the saline (isotonic) controls were as follows:
The effective anti-pyretic activity of AMR-69 in rabbits has been noted previously.

[6] = test system: serum uric acid; assay: Reduction in serum uric acid levels, rats; type: in vivo, albino male and female rats
Experimental: normal adult albino male and female rats were given repeated graded doses of AMR-69 and the effect upon serum uric acid levels was determined. There were 10 males and 10 females in each group. The control group received the placebo and the drug was administered orally by admixture to the food. The serum uric acid determination was one of a series performed utilizing the Autotechnicon technique (Lofland et al., 1965 Technicon Symposium) using the Standard SMA-12 procedure (based upon procedure of Bittner et al., AM. J. Clin. Path. 40:423, 1963).
The lowering in serum uric acid levels shown by AMR-69 in tests on rats and on dogs has been noted.

[7] = test system: glucose level in the serum; assay: Reduction in serum glucose levels, nine week diet test in rats; type: in vivo, weanling rats of the Carworth Farms CFE Strain
[8] = test system: mucous membranes of the nasopharynx and lungs; assay: Protection of mucous membranes of the nasopharynx and lungs, comparison with related pyridones; type: in vivo; conditions: comparison with related pyridones
[9] = test system: blood; assay: Blood studies after administration for efficacy, and acute and chronic toxicity; type: in vivo; conditions: therapeutic or sublethal amounts; rats, mice, rabbits and dogs
[10] = test system: skin conditions; assay: Effect on skin conditions (dermatitis, itching, insect sting, poison ivy) in humans; type: in vivo, human
[11] = test system: rabbit leg muscle; assay: Local toxicity of intramuscular injection into rabbit leg muscle; type: in vivo, New Zealand white rabbits
Experimental: six healthy adult New Zealand white rabbits from a stock colony were injected into the large muscle mass of the leg with a 2.0 milliliter volume of 2.0% aqueous solution of AMR-69. The response was compared to the intramuscular injection of 2.0 ml. of an isotonic solution of sodium chloride. The animals were carefully observed for any evidence of discomfort for a period of three hours. […] Three hours after the injection, the animals were sacrificed and a careful dissection was made around the injection site of the: (1) skin, (2) subcutaneous fascia, and (3) muscle tissue for a gross examination under a low powder binocular mircroscope for any tissue reaction. […] Similarly, no tissue reaction was found following the intramuscular injection of the isotonic saline. One change noted in two rabbits reflected a hemorrhage from a vein which was cut as the hypodermic needle passed into the tissue. After the gross examination, the muscle masses were dissected out, removed and preserved in buffered formalin for histological examination.

[12] = test system: edema (swelling), experimental inflammation in the hind limb of rats; assay: Anti-inflammatory activity, reduction of edema of experimentally inflamed hind limb; type: in vivo, albino rats; conditions: oral
Experimental: anti-inflammatory activity was assayed by the method described by Margolin (ibid.) utilizing albino rats. The anti-inflammatory bio-assay basis is the ability to reduce the edema (swelling) when an experimental inflammation is induced in the hind limb of the rats.

[13] = test system: rats with the hind limb inflammed; assay: Analgesic activity, rats with inflamed hind limb (absence of squeal on flexion of inflamed ankle joint); type: in vivo, rat; conditions: oral
Experimental: the end-point for analgesic testing in rats with the hind limb inflammed is based on the absence of a squeal in response to flexion of the inflammed ankle joint (Method described by S. Margolin, Proceedings of an International Symposium on Non-Steroidal Anti-Inflammatory Drugs, Excerpta Medica International Congress, Series No. 82, 1964).
With AMR-93, the median effective dose was 325 ± 45 mg./kg.

[14] = test system: mucous linings of the respiratory system; assay: Clinical trials on humans with sinusitis, post-nasal drip, rhinitis, conjunctivitis, headache, earache, sore throat; type: in vivo, human; conditions: oral capsule, approximately 400 mg. per capsule
[15] = test system: dog lung tissues; assay: Protection of mucous membranes against noxious agents, microscopic examination of dog lung tissues; type: in vivo
[16] = Tolerability on administration over extended periods; type: in vivo
Source text: It may be administered orally, topically, parenterally, intradermally, by inhalation spray in formulations containing conventional non-toxic pharmaceutically acceptable carriers, adjuvants and vehicles. The term parenteral as used herein includes subcutaneous injections, intravenous, intromuscular, intracisternal or intrathecal injection or infusion techniques.

[17] = test system: rat lung tissues; assay: Protection of mucous membranes against noxious agents, gross examination of rat lung tissues; type: in vivo
[18] = test system: serum uric acid; assay: Reduction in serum uric acid levels, dogs; type: in vivo, Beagle type dogs
Experimental: adult male and female Beagle type dogs from a closed colony weighing approximately 10 to 15 kilograms were utilized in the study. There were seven to nine dogs per group. AMR-69 was given orally in capsules to two groups and the third group received placebo capsules. […] The method for determining serum uric acid was performed using the Autotechnicon and the SMR-12 series of analyses. The specific method was based upon the procedure of Lofland et al. The mean serum uric acid values obtained with repeated doses of AMR-69 were as follows: […]

Cc1ccc(=O)n(-c2ccccc2)c1 [AMR-69, 5-methyl-1-phenyl-2-(1H)-pyridone]
absorption in the blood stream [1]: very rapidly absorbed in the blood stream
solubility compared with other analgesic uricosuric agents [2]: more readily soluble than other analgesic uricosuric agents
lethal dosage level / toxicity as compared to aminopyrine [3]: markedly lower toxicity; also recorded: significant higher lethal dosage level as compared to aminopyrine
LD50 [4]: 420 ± 9 mg/kg
average change in temperature over a period of three hours ([5]; 100 mg./kg. i.p., fevered albino rabbits, saline controls +0.9 ±0.17°C): -0.4 ±0.12 °C
reduction in fever as compared to the saline control ([5]; 100 mg./kg. i.p., aminopyrine t = 6.6, p < 0.01, AMR-69 t = 6.3, p < 0.01): highly significant
anti-pyretic activity ([5]; rabbits, induced fever): effective anti-pyretic agent
crystal deposition of uric acid or its salts (joints, liver, muscles, kidneys) ([6]; microscopic examination of focal tissues of sacrificed animals): no evidence of crystal deposition
reduction in serum uric acid, significance ([6]; rats, 30 and 100 mg./kg.): statistically significant
serum uric acid, 30 mg./kg. ([6]; rats, repeated oral 30 mg./kg. in food, placebo 1.53 ± 0.20 mg.%, T = 1.92 (P = 0.06)): 1.05 ± 0.15 mg.%
serum uric acid, 100 mg./kg. ([6]; rats, repeated oral 100 mg./kg. in food, placebo 1.53 ± 0.20 mg.%, T = 3.25 (P< 0.01)): .78 ± 0.11 mg %
mean glucose, female, 600 mg./kg./day ([7]; female rats, 600 mg./kg./day in diet, control 173.0 mg.%): 144.8 mg.%
mean glucose, female, 900 mg./kg./day ([7]; female rats, 900 mg./kg./day in diet, control 173.0 mg.%): 136 mg/dL
mean glucose in the serum, male, 600 mg./kg./day ([7]; male rats, 600 mg./kg./day in diet, nine weeks, control 155.8 mg.%): 131.8 mg.%
mean glucose in the serum, male, 900 mg./kg./day ([7]; male rats, 900 mg./kg./day in diet, nine weeks, control 155.8 mg.%): 132.6 mg.%
protection of mucous membranes of the nasopharynx and lungs [8]: effective
blood dyscrasias [9]: no indication of blood dyscrasias
relief from the symptom, skin conditions ([10]; oral capsule (procedure of preceding section)): Relief from the symptom was rapid in each instance
relief from itching, contact dermatitis (poison ivy) ([10]; powder applied directly to the affected skin areas): substantially immediate relief from the characteristic itching
time to cessation of weeping of the affected areas ([10]; powder applied topically, poison ivy): thirty
microscopic examination of injection sites versus isotonic saline ([11]; 2.0 ml of 2.0% aqueous solution i.m.): no difference between those of the isotonic saline and the parenteral AMR-69
histological examination of excised muscle ([11]; 2.0 ml of 2.0% aqueous solution i.m., stained tissue sections): absence of any edema, erythema, chemosis, or necrosis
tissue reaction at injection site, gross examination (skin, subcutaneous fascia, muscle) ([11]; 2.0 ml of 2.0% aqueous solution i.m., three hours): No evidence of tissue reaction was observed
discomfort after intramuscular injection ([11]; 2.0 ml of 2.0% aqueous solution, three hours): No discomfort was evident
ED50 ([12]; Rattus norvegicus, read-out: oral median effective dose (ED50), anti-inflammatory): 200 ± 46 mg/kg
onset of the anti-inflammatory therapeutic effect ([12]; vs aminopyrine): more rapid onset of the therapeutic effect
ED50 ([13]; Rattus norvegicus, read-out: oral ED50 (median analgesic dose)): 145 ± 26 mg/kg
analgesic effectiveness by the oral route as compared to aminopyrine [13]: as effective as aminopyrine
onset of analgesic effect as compared to aminopyrine [13]: more rapid onset of analgesic effect
noxious effect of acute and chronic infections of the nasopharynx, cranial sinuses [14]: arrested and relieved
protection against noxious focal respiratory tract pathology (petechiae, edema, hemorrhage, focal infection) [15]: affording protection against noxious focal respiratory tract pathology
irritation of body tissues at effective dosage levels ([16]; effective dosage levels): relatively non-irritating to the various body tissues
side reactions on administration over extended periods ([16]; extended periods): no untoward side reactions
protection against noxious focal respiratory tract pathology (petechiae, edema, hemorrhage, focal infection) [17]: affording protection against noxious focal respiratory tract pathology
reduction in serum uric acid values versus control ([18]; oral capsules (P 0.05)): significantly different from the control
mean serum uric acid, 25 mg/kg ([18]; repeated oral capsules 25 mg/kg, placebo 0.78 ± 0.046 mg.%, T = 2.84 (P<0.02)): 0.59 ± 0.051 mg.%
mean serum uric acid, 75 mg/kg ([18]; repeated oral capsules 75 mg/kg, placebo 0.78 ± 0.046 mg.%, T = 2.40 (P<0.05)): 0.60 ± 0.049 mg.%
